# Measured values published in patent US7767659B2, “Synthesis of naturally occurring ecteinascidins and related compounds” (Pharma Mar, S.A., priority 2002, dated 2010).
# Key:
# LoVo = assay: cells; conditions: Homo sapiens, LoVo, 48 h; for GI50: read-out: GI50 LOVO; for CC50: read-out: LC50 LOVO; for IC (TGI): read-out: TGI LOVO
# How it was run: (§1)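 Colorimetric SRB read (490 nm) on triplicate wells after 48 h at 37 °C, 5% CO2. Dose range 10 to 10^−8 μg/ml; 5×10^3 cells/well pre-attached 18 h.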
# A-549 = assay: cells; conditions: Homo sapiens, A549, 48 h; for GI50: read-out: GI50 A549; for CC50: read-out: LC50 A549; for IC (TGI): read-out: TGI A549
# How it was run: as §1
# HT-29 = assay: cells; conditions: Homo sapiens, HT-29, 48 h; for GI50: read-out: GI50 HT29; for IC (TGI): read-out: TGI HT29
# How it was run: as §1
# IGROV-ET = assay: Inhibition of cells growth by colorimetric assay (SRB); conditions: Homo sapiens, 48 h; for GI50: read-out: GI50 IGROV-ET; for CC50: read-out: LC50 IGROV-ET; for IC (TGI): read-out: TGI IGROV-ET
# How it was run: as §1
# LNCaP = assay: as above; conditions: Homo sapiens, LNCaP, 48 h; for GI50: read-out: GI50 LNCAP; for CC50: read-out: LC50 LNCAP; for IC (TGI): read-out: TGI LNCAP
# How it was run: as §1
# PANC-1 = assay: as above; conditions: Homo sapiens, PANC-1, 48 h; for GI50: read-out: GI50 PANC-1; for IC (TGI): read-out: TGI PANC-1
# How it was run: as §1
# SK-BR-3 = assay: as above; conditions: Homo sapiens, SK-BR-3, 48 h; for GI50: read-out: GI50 SK-BR3; for CC50: read-out: LC50 SK-BR3; for IC (TGI): read-out: TGI SK-BR3
# How it was run: as §1
# IGROV-1 = assay: as above; conditions: Homo sapiens, IGROV-1, 48 h; for GI50: read-out: GI50 IGROV; for CC50: read-out: LC50 IGROV; for IC (TGI): read-out: TGI IGROV
# How it was run: as §1
# LoVo-Dox = assay: as above; conditions: Homo sapiens, 48 h; for GI50: read-out: GI50 LOVO-DOX; for IC (TGI): read-out: TGI LOVO-DOX
# How it was run: as §1
# HeLa-APL = assay: as above; conditions: Homo sapiens, 48 h; for GI50: read-out: GI50 HELA-APL; for CC50: read-out: LC50 HELA-APL
# How it was run: as §1
# HeLa = assay: as above; conditions: Homo sapiens, HeLa, 48 h; for GI50: read-out: GI50 HELA; for CC50: read-out: LC50 HELA; for IC (TGI): read-out: TGI HELA
# How it was run: as §1
# DU-145 = assay: as above; conditions: Homo sapiens, DU-145, 48 h; for GI50: read-out: GI50 DU145; for IC (TGI): read-out: TGI DU145
# How it was run: as §1
# SK-MEL-28 = assay: as above; conditions: Homo sapiens, SK-MEL-28, 48 h; for GI50: read-out: GI50 MEL-28; for CC50: read-out: LC50 MEL-28; for IC (TGI): read-out: TGI MEL-28
# How it was run: as §1
# K-562 = assay: as above; conditions: Homo sapiens, K562, 48 h; for GI50: read-out: GI50 K562; for CC50: read-out: LC50 K562; for IC (TGI): read-out: TGI K562
# How it was run: as §1
smiles,measurement,setting,value
C=CCN1[C@@H]2c3c(cc(C)c(OC)c3O)C[C@H]1[C@H](C#N)N1C2[C@@H]2SC[C@H](NC(=O)c3cc4ccccc4oc3=O)C(=O)OC[C@H]1c1c3c(c(C)c(OC(C)=O)c12)OCO3 (stereo partly shown) [compound 28],GI50,LoVo,0.0663 µM
same,CC50,LoVo,0.687 µM
same,IC (TGI),LoVo,0.212 µM
same,GI50,A-549,0.0525 µM
same,CC50,A-549,2.27 µM
same,IC (TGI),A-549,0.163 µM
same,GI50,HT-29,0.0765 µM
same,IC (TGI),HT-29,2.05 µM
same,GI50,IGROV-ET,0.138 µM
same,CC50,IGROV-ET,0.898 µM
same,IC (TGI),IGROV-ET,0.352 µM
same,GI50,LNCaP,0.0229 µM
same,CC50,LNCaP,0.111 µM
same,IC (TGI),LNCaP,0.0504 µM
same,GI50,PANC-1,0.0592 µM
same,IC (TGI),PANC-1,0.197 µM
same,GI50,SK-BR-3,0.0473 µM
same,CC50,SK-BR-3,1.22 µM
same,IC (TGI),SK-BR-3,0.164 µM
same,GI50,IGROV-1,0.049 µM
same,CC50,IGROV-1,1.57 µM
same,IC (TGI),IGROV-1,0.155 µM
same,GI50,LoVo-Dox,0.362 µM
same,IC (TGI),LoVo-Dox,1.22 µM
same,GI50,HeLa-APL,0.0559 µM
same,CC50,HeLa-APL,0.682 µM
same,IC (TGI),HeLa-APL; read-out: TGI HELA-APL,0.13 µM
same,GI50,HeLa,0.0386 µM
same,CC50,HeLa,0.289 µM
same,IC (TGI),HeLa,0.0755 µM
same,GI50,DU-145,0.0358 µM
same,IC (TGI),DU-145,1.27 µM
same,GI50,SK-MEL-28,0.0568 µM
same,CC50,SK-MEL-28,0.692 µM
same,IC (TGI),SK-MEL-28,0.135 µM
same,GI50,K-562,0.0283 µM
same,CC50,K-562,2.69 µM
same,IC (TGI),K-562,0.135 µM
C=CCN1[C@@H]2c3c(cc(C)c(OC)c3OC(=O)/C=C/c3ccccc3)C[C@H]1[C@H](C#N)N1C2[C@@H]2SCC(NC(=O)C(F)(F)F)C(=O)OC[C@H]1c1c3c(c(C)c(OC(C)=O)c12)OCO3 (stereo partly shown) [compound 29],GI50,LoVo,2.85 µM
same,CC50,LoVo,11.4 µM
same,IC (TGI),LoVo,11.4 µM
same,GI50,A-549,4.8 µM
same,CC50,A-549,11.4 µM
same,IC (TGI),A-549,11.4 µM
same,GI50,HT-29,11.4 µM
same,CC50,HT-29; read-out: LC50 HT29,11.4 µM
same,IC (TGI),HT-29,11.4 µM
same,GI50,IGROV-ET,3.12 µM
same,CC50,IGROV-ET,11.4 µM
same,IC (TGI),IGROV-ET,11.4 µM
same,GI50,LNCaP,0.878 µM
same,CC50,LNCaP,11.4 µM
same,IC (TGI),LNCaP,6.07 µM
same,GI50,PANC-1,6.55 µM
same,CC50,PANC-1; read-out: LC50 PANC-1,11.4 µM
same,IC (TGI),PANC-1,11.4 µM
same,GI50,SK-BR-3,0.889 µM
same,CC50,SK-BR-3,11.4 µM
same,IC (TGI),SK-BR-3,7.98 µM
same,GI50,IGROV-1,2.19 µM
same,CC50,IGROV-1,11.4 µM
same,IC (TGI),IGROV-1,11.4 µM
same,GI50,LoVo-Dox,4.09 µM
same,CC50,LoVo-Dox; read-out: LC50 LOVO-DOX,11.4 µM
same,IC (TGI),LoVo-Dox,11.4 µM
same,GI50,HeLa-APL,4.29 µM
same,CC50,HeLa-APL,11.4 µM
same,GI50,HeLa,6.3 µM
same,CC50,HeLa,11.4 µM
same,IC (TGI),HeLa,11.4 µM
same,GI50,DU-145,2.3 µM
same,CC50,DU-145; read-out: LC50 DU145,11.4 µM
same,IC (TGI),DU-145,7.93 µM
same,GI50,SK-MEL-28,3.74 µM
same,CC50,SK-MEL-28,11.4 µM
same,IC (TGI),SK-MEL-28,11.4 µM
same,GI50,K-562,0.629 µM
same,CC50,K-562,11.4 µM
same,IC (TGI),K-562,3.9 µM
